From patent publication US12268739B2, “Use of toll-like receptor 2 (TLR-2) agonist for modulating human immune response” (Children's Medical Center Corporation, priority 2018, dated 2025)
Entries after “also recorded” stand apart in the source; their conditions may differ.

Key:
[1] = tested on: THP1-NF-κB cells; assay: THP1-NF-κB cell stimulation for 24 hours, secreted luciferase luminescence; assay type: cell-based, human; details: for THP1 cells (relative luminescence units, N = 4) Comp at 25 uM / THP1 cells (relative luminescence units, N = 4) Comp at 100 uM: NF-κB-dependent luminescence, 24 hours; for THP1 cells (relative luminescence units, N = 4) Comp at 25 uM: compound at 25 uM; for THP1 cells (relative luminescence units, N = 4) Comp at 100 uM: compound at 100 uM
Method: (§1) THP-1 Cell Line and Culture Conditions. The THP1-Lucia™ cell line was obtained from Invivogen (San Diego, CA). THP1-Lucia cells, which are human monocytic cells derived from the blood of a child with leukemia, contain an NF-kB-inducible Luc reporter construct. This allows NF-kB activation to be measured by quantifying the luminescence from the secreted luciferase enzyme. THP1-Lucia cells were cultured in RPMI 1640 supplemented with 10% non-heat inactivated fetal bovine serum (FBS), 10 mM HEPES, 1.0 mM sodium pyruvate, 50 ug/ml Pen-Strep, and 100 ug/mL Normocin™. Once cultured, the cells were stored in a 37° C. incubator with 5% CO2 and a humidified atmosphere. Cells were passaged every 2-3 days and not allowed to exceed a concentration of 2.0×10^6 cells/ml media.
PBMCs were isolated from blood using a Ficoll density gradient. PBMCs either used fresh or were stored at 5×10^7 cells per vial in 1 mL RPMI containing 20% autologous plasma and 10% DMSO at −80° C. until use. Stimulation plates were prepared by transferring 0.66 μl of DMSO-dissolved compounds (30 or 7.5 mM) to each well of a round bottom 96-well plate. PBMCs isolated from human adult donors or THP1-NF-κB cells were resuspended at a concentration of 10^5 cells/200 μl of RPMI supplemented with 10% of platelet-poor plasma or THP1 culture medium, respectively. 200 μl of the cell suspension were transferred to each well resulting in a final compound concentration of 100 or 25 μM. After 24 hours of incubation (37° C., 5% CO2), plates were spun down (500×g, room temperature, 5 minutes) and supernatants were harvested for further analysis.

[2] = tested on: NF-κB reporter THP1 cells; assay: NF-kB-induced luminescence HTS in THP1-Lucia cells (384-well); assay type: cell-based, human; details: ranked at 3.3 μM; ~200,000 compounds tested
Description: HTS Overview: To identify immunomodulators/adjuvants that robustly activate human immune cells, ˜200,000 small molecules were screening in a THP1 cell-based assay. The chemical libraries screened included known bioactive and commercial libraries from various sources including commercial libraries such as ChemDiv, ChemBridge, and Asinex. All libraries were owned and provided by the Institute of Chemistry and Cell Biology (ICCB)—Longwood (Harvard Medical School). The project primary screen incorporated two distinct arms: a) a luciferase-based screen which corresponds to the relative activation of the NF-κB reporter; and b) a fluorescence-based screen, corresponding to the phenotypic adherence, a distinct marker of cell activation, of the human monocytic THP-1 cell lines. Described herein are small molecules identified in the screen that induce NF-kB activity based on a luciferase-based THP-1 cell screen.
as §1
NF-kB-induced Luminescence Assay. THP1-Lucia cells between passage 15 and 18 and suspended in culture medium were dispensed into 384-well black clear-bottom plates (Corning 3712) at 30,000 cells/30 μl/well using a Combi liquid dispenser. To allow comparison to a benchmark small molecule with known immune stimulating activity, cells at the same concentration were stimulated with 50 μM R848, a TLR7/8 agonist, in 0.3% DMSO and added to every other well of column 24, which was left empty of cells, by multichannel pipette at the same volume. Five μl of 700 nM Phorbol myristate acetate (PMA) in THP1 culture media and 2.3% DMSO, a known peripheral blood cell mitogen, was added to every other well of column 23 by multichannel pipette (final concentration in well: 100 nM in 0.3% DMSO). Five μl of THP1 culture media with 2.3% DMSO was added to the remaining wells of column 23 by multichannel pipette (final concentration 0.3% DMSO). One hundred nl aliquots of library compounds diluted in 100% DMSO were transferred from their original 384-well plates to the assay plates using a Seiko pin transfer machine. Each library plate was pinned in duplicate, yielding two assay plates with identical conditions for comparison. Plates were then incubated for 24 hours at 37 C with 5% CO2 in humid conditions. Following incubation, 10 μL of supernatant was removed from each well and transferred to a white plate (Corning 3570) using a Vprep liquid transfer machine. 10 μL of recombinant Lucia protein (Invivogen) diluted 1:2000 in THP1 culture media was added to empty well 24P. Using a Combi liquid dispenser, 50 μL/well of Quanti-Luc substrate (Invivogen) diluted 1:3 in sterile water was added to the assay plate. Immediately after adding the substrate, the luminescence was read using a PerkinElmer Envision plate reader.

[3] = tested on: human adult PBMCs; assay: Cytokine production by stimulated human adult PBMCs (ELISA / multiplex); assay type: cell-based; details: for Adult PBMCs (median ng/ml) IL-6 (N = 7) / Adult PBMCs (median ng/ml) TNFa (N = 13): human adult PBMCs, compounds at 100 µM (FIG. 7), ELISA
Method: ELISAs and Multiplex-Analyte Assays. Supernatants derived from human PBMCs stimulations were assayed by ELISA for TNF and IL-6 (ThermoFisher Scientific; Waltham, MA, USA). Cytokine and chemokine expression profiles (e.g., IFNγ, IL-9, IL-10, IL-12 (p70), IL-13, IL-1β, IL-23, IL-27, IL-28A, IL-33, IL-6, MIP-3α/CCL20, and TNF) in cell culture supernatants were measured using a customized Milliplex® Human Th17 Magnetic Bead Panel according to the manufacturer's instructions (Millipore, Chicago, IL, USA). Assays were read and analyzed on the Luminex® 100/200TM System and xPOTENT® software (Luminex, Austin, TX). A minimum threshold was set at the minimum detectable concentration for each individual assay, defined as three standard deviations above the mean background.
PBMCs were isolated from blood using a Ficoll density gradient. PBMCs either used fresh or were stored at 5×10^7 cells per vial in 1 mL RPMI containing 20% autologous plasma and 10% DMSO at −80° C. until use. […] PBMCs isolated from human adult donors or THP1-NF-κB cells were resuspended at a concentration of 10^5 cells/200 μl of RPMI supplemented with 10% of platelet-poor plasma or THP1 culture medium, respectively. […] After 24 hours of incubation (37° C., 5% CO2), plates were spun down (500×g, room temperature, 5 minutes) and supernatants were harvested for further analysis.

[4] = molecular target: T1, human TLR2 (Homo sapiens, UniProt O60603); assay: HEK-Blue human TLR cell screening (NF-κB SEAP reporter); assay type: cell-based; details: compounds at 10 μM, fold change over negative controls
T1 construct: expressed in transfected cells; host or cells: HEK-Blue (human embryonic kidney) cells with an NF-kB-inducible SEAP reporter
T1 sequence (O60603 21-784): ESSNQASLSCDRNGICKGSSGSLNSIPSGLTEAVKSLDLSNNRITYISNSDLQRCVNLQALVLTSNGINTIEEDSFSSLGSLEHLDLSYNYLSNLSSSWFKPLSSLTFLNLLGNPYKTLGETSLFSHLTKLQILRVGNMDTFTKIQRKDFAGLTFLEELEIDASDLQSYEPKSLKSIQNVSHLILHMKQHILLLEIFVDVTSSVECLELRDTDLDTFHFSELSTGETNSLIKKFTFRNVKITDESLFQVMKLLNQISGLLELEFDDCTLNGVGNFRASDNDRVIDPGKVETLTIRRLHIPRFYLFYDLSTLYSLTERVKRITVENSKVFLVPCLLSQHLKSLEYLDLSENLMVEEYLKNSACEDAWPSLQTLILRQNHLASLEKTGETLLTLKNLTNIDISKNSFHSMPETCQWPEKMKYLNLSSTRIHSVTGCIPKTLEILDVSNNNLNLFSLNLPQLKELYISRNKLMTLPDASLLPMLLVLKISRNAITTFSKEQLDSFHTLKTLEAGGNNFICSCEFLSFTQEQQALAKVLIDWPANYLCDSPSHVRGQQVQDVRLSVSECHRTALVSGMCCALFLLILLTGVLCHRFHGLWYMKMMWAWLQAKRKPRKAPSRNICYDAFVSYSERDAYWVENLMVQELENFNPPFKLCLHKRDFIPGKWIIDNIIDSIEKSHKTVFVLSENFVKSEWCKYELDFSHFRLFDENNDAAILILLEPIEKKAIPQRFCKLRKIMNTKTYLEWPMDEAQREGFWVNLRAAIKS
Method: HEK cell screening. Human embryonic kidney (HEK)-Blue cell lines expressing human TLRs (hTLRs) and a secreted embryonic alkaline phosphatase (SEAP) reporter under the control of an NF-κB-inducible promoter were cultured in 96-well plates (50,000-75,000 cells/200 μl/well) and stimulated with the indicated compounds at 10 µM or positive controls. The media added to the wells is designed for detection of NF-κB-induced SEAP expression. After 16-24 hours of incubation optical density (OD) was read at 650 nm on a Molecular Devices SpectraMax 340PC absorbance detector. Positive controls employed in this assay were: heat-killed Listeria monocytogenes (1×10^8 cells/ml) for hTLR2, Poly (I:C) HMW (1 μg/ml) for hTLR3, ? E. coli K12 LPS (100 ng/ml) for hTLR4, S. typhimurium flagellin (100 ng/ml) for hTLR5, CL307 (1 μg/ml) for hTLR7, CL075 (1 μg/ml) for hTLR8 and CpG ODN 2006 (1 μg/ml) for hTLR9.

[5] = molecular target: T1, human TLR2; assay: HEK293 assay for human TLR2 selectivity (NF-κB/SEAP); assay type: cell-based; details: 18-24 hours stimulation, titratable
Method: (§2) HEK293 assay for human TLR2 and TLR8 selectivity: Human embryonic kidney (HEK) 293 cells expressing human TLR2 or TLR8 with an NF-κB-responsive secreted embryonic alkaline phosphatase (SEAP) reporter gene were obtained from Invivogen (San Diego, CA). Cells were maintained in RPMI or DMEM with 10% heat inactivated-FBS and selection antibiotics per the manufacturer's instructions. Cells were plated at 5×10^5 cells/96-well and stimulated with indicated agonist(s) for 24 hours. Supernatants were harvested and analyzed for NF-κB/SEAP activation using the QuantiBlue kit (Invivogen). Values are expressed as fold change in OD650 over vehicle-only treated samples.

[6] = molecular target: T2, human TLR8 (Homo sapiens, UniProt Q9NR97); assay: HEK293 assay for human TLR8 selectivity (NF-κB/SEAP); assay type: cell-based; details: selectivity counter-assay
T2 construct: host or cells: HEK293 cells with an NF-kB-responsive SEAP reporter gene
T2 sequence (Q9NR97 27-1041): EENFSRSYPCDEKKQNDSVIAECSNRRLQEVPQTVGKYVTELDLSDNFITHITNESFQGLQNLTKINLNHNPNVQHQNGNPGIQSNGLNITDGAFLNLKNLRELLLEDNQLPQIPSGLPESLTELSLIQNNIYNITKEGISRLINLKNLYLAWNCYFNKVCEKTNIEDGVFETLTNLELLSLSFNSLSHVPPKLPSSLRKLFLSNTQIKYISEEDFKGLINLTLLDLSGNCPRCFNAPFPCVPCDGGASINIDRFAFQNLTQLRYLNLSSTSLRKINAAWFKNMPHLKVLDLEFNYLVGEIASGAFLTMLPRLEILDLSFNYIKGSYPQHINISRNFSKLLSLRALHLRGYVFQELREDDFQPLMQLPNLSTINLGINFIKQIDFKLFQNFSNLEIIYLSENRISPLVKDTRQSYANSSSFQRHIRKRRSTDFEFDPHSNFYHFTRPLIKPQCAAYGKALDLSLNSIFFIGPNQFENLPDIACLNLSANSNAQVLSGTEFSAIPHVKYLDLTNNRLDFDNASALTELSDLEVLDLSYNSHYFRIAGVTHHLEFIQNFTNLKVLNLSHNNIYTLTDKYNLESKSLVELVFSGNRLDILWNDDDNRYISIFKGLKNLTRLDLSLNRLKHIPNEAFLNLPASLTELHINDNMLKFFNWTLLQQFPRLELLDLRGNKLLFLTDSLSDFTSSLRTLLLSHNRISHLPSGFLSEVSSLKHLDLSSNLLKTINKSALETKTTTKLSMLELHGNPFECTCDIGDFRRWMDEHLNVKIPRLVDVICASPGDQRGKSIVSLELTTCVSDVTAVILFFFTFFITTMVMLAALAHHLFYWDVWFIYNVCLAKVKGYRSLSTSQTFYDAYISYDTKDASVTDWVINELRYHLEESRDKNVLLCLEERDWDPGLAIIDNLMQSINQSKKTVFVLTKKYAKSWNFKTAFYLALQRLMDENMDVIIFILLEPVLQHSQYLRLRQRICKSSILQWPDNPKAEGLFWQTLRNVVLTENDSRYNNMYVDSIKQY
Method: as §2

COC(=O)c1c(NC(=O)CN2CCC3(CC2)OCCO3)sc2c1CCCC2 [Compound 004]
Activation of THP1 cells ([1]; 384 and 96 well assay): induced activation of THP1 cells | Efficacy in activating NF-κB in THP1 cells (screening hits) [2]: most effective NF-κB activators; also recorded: most effective NF-kB activators | Activation of human adult PBMCs (cytokine levels by multiplex assay) ([3]; 384-well plates, 24 hours, 0.05-33 μM): activates human adult PBMCs in a concentration-dependent manner | Activation of human adult PBMCs ([3]; 384 and 96 well assay): induced activation | Activation of human TLR2 (NF-κB activation in TLR-expressing HEK-Blue cells) [4]: activate human TLR2; also recorded: activated the human TLR2-expressing human embryonic kidney (HEK)-Blue cell line

CCOC(=O)c1c(NC(=S)Nc2ccccc2OC)sc2c1CC(C)(C)OC2 [Compound 070]
Efficacy in activating NF-κB in THP1 cells (screening hits) [2]: most effective | Activation of human TLR2 (NF-κB activation in TLR-expressing HEK-Blue cells) [4]: activate human TLR2

CNC(=O)c1c(NC(=O)c2ccc(S(=O)(=O)N(C)C)cc2)sc2c1CCCC2 [Compound 80.3]
TLR2 activation in HEK TLR2 cells (SEAP) [5]: induced TLR2 specific activation | THP1 cells (relative luminescence units, N = 4) Comp at 25 uM [1]: 2835 relative luminescence units | THP1 cells (relative luminescence units, N = 4) Comp at 100 uM [1]: 3630 relative luminescence units | Adult PBMCs (median ng/ml) IL-6 (N = 7) ([3]; 24 hours): 0.008 ng/mL | Adult PBMCs (median ng/ml) TNFa (N = 13) ([3]; 24 hours): 0.008 ng/mL | TLR8 induction in HEK TLR8 cells (SEAP) [6]: without induction of TLR8

CNC(=O)c1c(NC(=O)c2ccc(S(=O)(=O)N3CCCC3)cc2)sc2c1CCC2 [Compound 80.10]
TLR2 activation in HEK TLR2 cells (SEAP) [5]: induced TLR2 specific activation | THP1 cells (relative luminescence units, N = 4) Comp at 25 uM [1]: 3576 relative luminescence units | THP1 cells (relative luminescence units, N = 4) Comp at 100 uM [1]: 4814 relative luminescence units | Adult PBMCs (median ng/ml) IL-6 (N = 7) ([3]; 24 hours): 0.012 ng/mL | Adult PBMCs (median ng/ml) TNFa (N = 13) ([3]; 24 hours): 0.008 ng/mL | TLR8 induction in HEK TLR8 cells (SEAP) [6]: without induction of TLR8

CNC(=O)c1c(NC(=O)c2ccc(S(=O)(=O)N(C)C)cc2)sc(C)c1C [Compound 80.15]
TLR2 activation in HEK TLR2 cells (SEAP) [5]: induced TLR2 specific activation | THP1 cells (relative luminescence units, N = 4) Comp at 25 uM [1]: 6369 relative luminescence units | THP1 cells (relative luminescence units, N = 4) Comp at 100 uM [1]: 9715 relative luminescence units | Adult PBMCs (median ng/ml) IL-6 (N = 7) ([3]; 24 hours): 0.008 ng/mL | Adult PBMCs (median ng/ml) TNFa (N = 13) ([3]; 24 hours): 0.0225 ng/mL | TLR8 induction in HEK TLR8 cells (SEAP) [6]: without induction of TLR8
